Measured values taken from US20070225312A1, “TERGURIDE / PROTERGURIDE FOR THE TREATMENT OF CHRONIC PAIN” (ERGONEX PHARMA GMBH, priority 2006, published 2007).

How the values were obtained:
[1] = test system: patient with herniated disc, chronic pain; test: Herniated disc chronic pain case, co-therapy with oxycodone
[2] = test system: patient with diabetic neuropathy; test: Diabetic neuropathy case (numerical rating scale); format: in vivo, human
Description: About 15 months ago, a diabetic neuropathy was clinically diagnosed in a patient who has been suffering from Type 2 Diabetes for 10 years. The patient was treated with 3×50 mg amitryptiline/day. At the time of the examination, the patient complained about pain conditions associated with burning sensations, shooting or stabbing pains and unpleasant formication, mainly in the feet and with increasing intensity during the night. On the numerical rating scale from 0=no pain to 10=maximum pain intensity, the patient reported mean pain values of 8-9 on average.
Under therapy with terguride (0.5 mg b.i.d.) the pain conditions and the general condition of the patient improved quickly (average pain value of 2-3 on the rating scale).

[3] = test system: patient with postherpetic neuralgia; test: Postherpetic neuralgia case; format: in vivo, human; settings: for pains under prior treatment: amitriptyline 3x50 mg/d, subsequently gabapentin 1500 mg daily, considerable deterioration within 10 days
Excerpt: A patient of normal weight complained about a severe burning sensation and pains in the dermal area of the chest.

[4] = test system: patient suffering from fibromyalgia; test: Application of proterguride in the case of fibromyalgia (single patient); format: in vivo, human; settings: daily dose 0.5 mg
Description: A patient suffering from fibromyalgia was treated with proterguride.
The patient complained about stomach problems, stomach pains, pains in the chest as well as about swollen breasts and continuous exhaustion and tiredness. The discomforts had persisted for approx. one year. No pretreatment had been realized prior to the treatment with proterguride.
The patient was treated with a daily dose of 0.5 mg of proterguride which was administered in the morning and in the evening. The treatment was realized gradually.
The treatment was realized over a period of 33 weeks and the condition of the patient was examined weekly. After just 12 weeks, the condition had improved, particularly regarding the pains in the chest.

[5] = test system: patient suffering from migraine; test: Application of terguride for the prophylaxis of migraine (single patient, diary); format: in vivo, human; settings: daily dose 2 mg
Description: A patient, suffering from migraine on average four times a month, was treated with terguride. The patient was treated with a daily dose of 2 mg terguride which was administered in the morning and in the evening in single doses of 1 mg. The treatment was realized gradually. […] The patient was treated over a period of 24 weeks. The frequency, duration and severity of the migraine attacks were recorded by means of a diary. Within 4 weeks following the start of the treatment, a reduction of 40% of the frequency of migraine attacks could be shown, as well as a reduction of the attack duration from cumulative 12 days before the therapy to 8 days under terguride. The consumption of pain medication under therapy with terguride was reduced by 46%. […] The patient reported an improvement of […] general condition.

[6] = test system: tumor patient with bone pains from bone metastases; test: Tumor associated pain case; format: in vivo, human; settings: 0.5 mg bid
Description: A tumor patient suffering from a pancreatic carcinoma complained about bone pains resulting from the development of bone metastases. The patient was treated with ibandronate. Additionally, the treatment was realized with ibuprofen, acetaminophen and desipramine. […] After the start of the therapy with terguride (0.5 mg bid) the patient's pain conditions were reduced and the well-being improved continuously.

[7] = test system: patient with migrainous headaches; test: Migraine prophylaxis case; format: in vivo, human
Description: The patient suffered from migrainous headaches with an average of 4-5 attacks per month, lasting on average between 3 and 8 hours. For acute pain treatment during an attack, a dosage of 50 mg of sumatriptan was administered orally. For the purpose of migraine prophylaxis, the patient was treated with topiramate in a dosage of 200 mg per day. […] Under administration of terguride (2×0.25 mg per day), the number of pain attacks decreased considerably to only one pain attack within 6 weeks with low pain intensity; also, the well-being of the patient improved within 2 weeks after the start of the therapy.

[8] = test system: patient suffering from mastalgia and stomach pains due to premenstrual syndrome; test: Application of terguride in the case of mastalgia/premenstrual syndrome (single patient); format: in vivo, human
Description: A patient suffering from mastalgia and stomach pains due to premenstrual syndrome was treated with terguride. […] The therapy started in the middle of the cycle. Twice a day, a tablet containing 0.5 mg terguride was administered to the patient over a period of 3 months. The pain severity was observed by means of a visual analogue scale. During the therapy, the pains in the chest and stomach area decreased and the patient was able to renounce on the administration of additional pain medication.

[9] = test system: patient suffering from fibromyalgia; test: Application of terguride in the case of fibromyalgia (single patient); format: in vivo, human
Description: A patient suffering from fibromyalgia was treated with terguride. The patient complained about chronic pain in the extremities as well as about stomach pains and continuous exhaustion and tiredness. The discomforts had persisted for several months. No pretreatment had been realized prior to the treatment with terguride. The patient was treated with a daily dose of 3 mg of terguride which was administered in the morning and in the evening in single doses of 1.5 mg. The treatment was realized gradually. […] The treatment was realized over a period of 25 weeks and the condition of the patient was examined weekly.

COc1ccc2c3c1O[C@H]1C(=O)CC[C@@]4(O)[C@@H](C2)N(C)CC[C@]314 [oxycodone, reference compound]
pain intensity ([1]; oxycodone alone, 2x10 mg increased to 2x40 mg per day): considerably reduced
constipation complaints ([1]; oxycodone alone, longer treatment, required dose reduction to 2x20 mg/day): the more complaints occurred due to constipation

CN(C)CCC=C1c2ccccc2CCc2ccccc21 [amitriptyline, reference compound]
mean pain values on numerical rating scale (0=no pain to 10=maximum pain intensity) ([2]; at examination, patient treated with 3x50 mg/day, before terguride): 8-9
pains under prior treatment [3]: only to a short-term improvement

NCC1(CC(=O)O)CCCCC1 [gabapentin, reference compound]
pains under prior treatment [3]: only to a short-term improvement

CCCN1C[C@@H](NC(=O)N(CC)CC)C[C@@H]2c3cccc4[nH]cc(c34)C[C@H]21 [proterguride]
condition, particularly pains in the chest ([4]; after 12 weeks): improved
swelling of breasts ([4]; after 12 weeks): reduction of the swelling
chronic tiredness and exhaustion and stomach pains ([4]; after 20 weeks): largely disappeared
overall condition of the patient ([4]; after 30 weeks): in the same condition as before the onset of the disease

CCN(CC)C(=O)N[C@H]1C[C@@H]2c3cccc4[nH]cc(c34)C[C@H]2N(C)C1 [terguride]
efficacy under chronic therapy ([1]; chronic therapy): remained efficient
pain ([1]; co-therapy terguride 2x0.5 mg/day with oxycodone 2x20 mg/day): almost completely pain-free
side effects ([5]; 24 weeks): No side effects
attack duration (cumulative) ([5]; under terguride, versus 12 days before the therapy): 8 days
reduction of consumption of pain medication ([5]; under therapy): 46%
reduction of the frequency of migraine attacks ([5]; within 4 weeks following start of treatment): 40%
pain conditions [6]: reduced
side effects [6]: No side effects were observed
side effects ([2]; 0.5 mg b.i.d.): No side effects
loss of efficacy under continuous treatment ([2]; 0.5 mg b.i.d., continuous treatment): No signs of an loss of efficacy
average pain value on numerical rating scale (0=no pain to 10=maximum pain intensity) ([2]; under terguride 0.5 mg b.i.d.): 2-3
side effects ([3]; 0.5 mg t.i.d.): No side effects were observed
pain on gradual dose reduction (treatment-free interval) ([3]; after 3 months, daily dose gradually reduced): the pain increased quickly
pain presentation ([3]; terguride 0.5 mg t.i.d.): improved in a fast and continuous manner
side effects ([7]; terguride 2x0.25 mg per day): No side effects were observed
time to improvement of well-being after start of therapy ([7]; terguride 2x0.25 mg per day): ≤ 2 weeks
number of pain attacks within 6 weeks ([7]; terguride 2x0.25 mg per day, before: 4-5 attacks per month, low pain intensity): one
migraine presentation after discontinuation (treatment-free interval) ([7]; terguride discontinued): the migraine presentation returned
general condition and joy of life ([8]; 0.5 mg twice a day, 3 months): considerably improved
pains in the chest and stomach area (visual analogue scale) ([8]; 0.5 mg twice a day, 3 months): decreased
side effects ([8]; 0.5 mg twice a day, 3 months): No side effects were observed
symptoms during the following months under therapy ([8]; continued therapy): remained symptom-free
condition, in particular pains in the extremities and stomach pains (visual analog scale) ([9]; daily dose 3 mg (2 x 1.5 mg), after 10 weeks): visibly improved
chronic conditions of tiredness and exhaustion ([9]; daily dose 3 mg, after 17 weeks): nearly impossible to detect

CC1(C)O[C@@H]2[C@@H](CO[C@@]3(COS(N)(=O)=O)OC(C)(C)O[C@@H]23)O1 [topiramate, reference compound]
migraine activity ([7]; topiramate 200 mg per day): No reduction of the migraine activity
adverse effects leading to discontinuation ([7]; topiramate 200 mg per day, after 3 months): nausea and weight loss
